In patent publication US20030207811A1, “Method of treating retinopathy of prematurity using somatostatin analogs” (priority 2002, published 2003):
Entries after “also recorded” stand apart in the source; their conditions may differ. Bridge positions count the residues as written; N and C are the ends. Square brackets hold non-standard residues; d marks the D form. Peptide text beside a SMILES is read from it.

Tests used:
[1] = test system: oxygen induced retinopathy; test: Oxygen induced retinopathy in neonatal mice, retinal scoring of fluorescein perfused whole mounts; type: in vivo, C57BL6 mice; conditions: for retinal neovascularization: mouse model of oxygen induced retinopathy; for median total retinopathy score / median total retinopathy score [median(25th, 75th quartile)]: oxygen reared; for median total retinopathy score [median(25th, 75th quartile)]: octreotide 20 μg kg^−1 bid s.c. P12-P16
Experimental: (§1) This protocol was approved by the Georgetown University Animal Care and Use committee and adhered to the Association for Research in Vision and Ophthalmology Statement for the Use of Animals in Ophthalmic and Vision Research. C57BL6 mice were obtained from Taconic Laboratories (Germantown, N.Y.). Neonatal mice were placed in an infant incubator with their nursing mother with 75% oxygen at P7 and remained in oxygen until removal to room air at P12 (Smith et al., 1994 Invest. Ophthalmol. Vis. Sci. 35, 101-11). Oxygen was delivered at 75±2%, measured with an oxygen analyser (Hudson Ventonics, Temecula, Calif., U.S.A.), and checked at least twice daily. Individual litters were either oxygen or room air reared. Within litters, differential treatment was performed including no treatment, octreotide, Woc4D, and sham injection. Animals were treated with injections for 5 days from P12 to P16. Animal killing was performed using a lethal dose of pentobarbital (120 mg/kg i.p.). Animals were perfused with fluorescein conjugated dextran as previously described (D'Amato et al., 1993, Microvasc. Res. 46, 135-42) and retinopathy was assessed by a retinal scoring system shown in Table I.
It was received and used as the acetate salt. Octreotide acetate was purchased from Polypeptide Laboratories. […] The analogs were dissolved in 33 mM acetate buffer (pH 5) with 135 mM NaCl. Sham injections were performed with that vehicle.
Retinopathy scores were evaluated by the Kruskal-Wallis test for the overall group and by the Mann-Whitney test to determine differences between groups. Animals weights and GH expression were evaluated using Student's t-test. Statistical significance was determined at the P<0.05 level.

[2] = Growth as measured by animal weight; type: in vivo, C57BL6 mice; conditions: Woc4D or octreotide treatment P12-P16
Experimental: as §1, with “Animal killing was performed using a lethal dose of pentobarbital (120 mg/kg i.p.).” left out, “I. […]” for “I.”
Retinopathy scores were evaluated by the Kruskal-Wallis test for the overall group and by the Mann-Whitney test to determine differences between groups. Animals weights and GH expression were evaluated using Student's t-test. Statistical significance was determined at the P<0.05 level. […]

SSTR2 [3] = biological target: T1, SSTR2 (Homo sapiens, UniProt P30874); conditions: agonist analog; cited from earlier work
[4] = test system: pituitary growth hormone (GH) mRNA; test: Pituitary growth hormone mRNA expression by RT-PCR; type: in vivo, C57BL6 mice
Experimental: RNA was extracted using TRIzol reagent (Life Technologies, Rockville, Md., U.S.A.) as described by the manufacturer and reverse transcriptase polymerase chain reaction (RT-PCR) was performed. Ten μg of RNA and 2 μM oligo(dT) 16 (total volume 22 μl) were heated at 68° C. for 2 min and cooled on ice. […] The mixture was incubated at 42° C. for 1 hour, then 99° C. for 5 min. The resultant cDNA was diluted with 100 μl of water and stored at -20° C. until PCR was performed. […] The mixture was incubated for 4 min at 94° C., followed by 28 cycles of 45 s at 94° C., 45 s at 58° C., and 45 s at 72° C., followed by 7 min at 72° C., in a PCR apparatus (model 2400, Perkin Elmer). To verify equal amounts of RNA were used in the PCR reaction and to verify uniform amplification process, β-actin mRNA was also amplified from the sample as an internal control. […] A 100 bp DNA ladder was used as a size marker. The number of cycles versus intensity of the PCR band was evaluated to determine the optimum number of cycles to be in the linear range. […] Retinopathy scores were evaluated by the Kruskal-Wallis test for the overall group and by the Mann-Whitney test to determine differences between groups. Animals weights and GH expression were evaluated using Student's t-test. Statistical significance was determined at the P<0.05 level.

SSTR2 [5] = biological target: T1, SSTR2; conditions: cited from earlier work

T1 sequence (P30874 whole entry, species assumed): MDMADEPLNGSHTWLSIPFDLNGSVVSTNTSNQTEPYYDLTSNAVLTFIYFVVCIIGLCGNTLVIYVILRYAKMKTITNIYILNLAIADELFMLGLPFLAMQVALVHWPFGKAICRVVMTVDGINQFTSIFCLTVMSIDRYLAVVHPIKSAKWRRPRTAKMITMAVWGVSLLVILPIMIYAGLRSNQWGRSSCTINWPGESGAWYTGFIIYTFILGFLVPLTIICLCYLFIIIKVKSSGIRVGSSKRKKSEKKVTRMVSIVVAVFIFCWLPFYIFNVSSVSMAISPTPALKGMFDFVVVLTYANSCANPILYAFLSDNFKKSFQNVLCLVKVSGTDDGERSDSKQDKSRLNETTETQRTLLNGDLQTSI

C[C@@H](O)[C@H](NC(=O)[C@@H]1CSSC[C@H](NC(=O)[C@@H](Cc2ccc(O)cc2)NC(=O)[C@@H](Cc2ccc(O)cc2)NC(=O)[C@@H](Cc2ccc(O)cc2)NC(=O)[C@H](N)Cc2ccc(O)cc2)C(=O)N[C@@H](Cc2ccccc2)C(=O)N[C@H](Cc2c[nH]c3ccccc23)C(=O)N[C@@H](CCCCN)C(=O)N[C@@H]([C@@H](C)O)C(=O)N1)C(N)=O [Woc4D, Dtyr-Dtyr-Dtyr-Dtyr-cyclo(Cys-Phe-DTrp-Lys-Thr-Cys)-Thr-NH2] (H-[dY][dY][dY][dY]CF[dW]KTCT-NH2; disulfide 5-10; N-terminus assumed)
Blood vessel growth subscore, median ([1]; Oxygen + Woc4D 50): 0 | Blood vessel tortuosity subscore, median ([1]; Oxygen + Woc4D 50): 1 | Hemorrhage subscore, median ([1]; Oxygen + Woc4D 50): 1 | Blood vessel growth subscore, median (25th, 75th quartile) ([1]; Room air + Woc4D 50): 0 (0, 0) | Blood vessel tortuosity subscore, median (25th, 75th quartile) ([1]; Room air + Woc4D 50): 0 (0, 0) | Blood vessel tufts subscore, median (25th, 75th quartile) ([1]; Room air + Woc4D 50): 0 (0, 0) | Central vasoconstriction subscore, median (25th, 75th quartile) ([1]; Room air + Woc4D 50): 0 (0, 0) | Extra retinal neovascularization subscore, median (25th, 75th quartile) ([1]; Room air + Woc4D 50): 0 (0, 0) | Hemorrhage subscore, median (25th, 75th quartile) ([1]; Room air + Woc4D 50): 0 (0, 0) | retinal neovascularization [1]: inhibited retinal neovascularization in an equally effective manner | retinal vascular pathology in retinal whole mount (FIG. 3) ([1]; oxygen exposed, Woc4D treated animal): less retinal vascular pathology | median total retinopathy score ([1]; Woc4D 20 μg kg^−1 day^−1 P12-P16): 6(3,7) | growth as measured by animal weight [2]: unaffected | affinity of interaction with SSTR2 (SSTR2 [3]): high affinity | oxygen stimulated GH mRNA ([4]; oxygen + Woc4D 50 μg kg^−1 day^−1 P12-P16): markedly reduced

C[C@@H](O)[C@@H]1NC(=O)[C@H](CCCCN)NC(=O)[C@@H](Cc2c[nH]c3ccccc23)NC(=O)[C@H](Cc2ccccc2)NC(=O)[C@@H](NC(=O)[C@H](N)Cc2ccccc2)CSSC[C@@H](C(=O)N[C@H](CO)[C@@H](C)O)NC1=O [octreotide, D-Phe-Cys-Phe-D-Trp-Lys-Thr-Cys Thr(ol)]
Blood vessel growth subscore, median ([1]; Oxygen + oct 20 bid): 0 | Blood vessel tufts subscore, median ([1]; Oxygen + oct 20 bid): decreased blood vessel tufts; also recorded: improvement | Central vasoconstriction subscore, median ([1]; Oxygen + oct 20 bid): 1 | Extra retinal neovascularization subscore, median ([1]; Oxygen + oct 20 bid): decreased extra-retinal neovascularization; also recorded: improvement | Blood vessel growth subscore, median (25th, 75th quartile) ([1]; Room air + oct 20 bid): 0 (0, 0) | Blood vessel tortuosity subscore, median (25th, 75th quartile) ([1]; Room air + oct 20 bid): 0 (0, 0) | Blood vessel tufts subscore, median (25th, 75th quartile) ([1]; Room air + oct 20 bid): 0 (0, 0) | Central vasoconstriction subscore, median (25th, 75th quartile) ([1]; Room air + oct 20 bid): 0 (0, 0) | Extra retinal neovascularization subscore, median (25th, 75th quartile) ([1]; Room air + oct 20 bid): 0 (0, 0) | Hemorrhage subscore, median (25th, 75th quartile) ([1]; Room air + oct 20 bid): 0 (0, 0) | retinal neovascularization [1]: inhibited retinal neovascularization in an equally effective manner | median total retinopathy score ([1]; octreotide 10 μg kg^−1 bid P12-P16): 6(3,7) | median total retinopathy score [median(25th, 75th quartile)] [1]: significant improvement | median total retinopathy score [median(25th, 75th quartile)] ([1]; listed as octreoride): 3.5(2.9, 4.3) | growth as measured by animal weight [2]: unaffected | receptor selectivity of stimulation (SSTR2 [5]): effective in stimulating SSTR2 to the virtual exclusion of the other receptors | oxygen stimulated GH mRNA ([4]; oxygen + octreotide 20 μg kg^−1 bid P12-P16): markedly reduced
